pIC50: −log10 of the molar value. Values belong to the compound of their own block, whether it stands above or below them.
Legend:
[1] = molecular target: T1, glucosylceramide synthase (GCS) (Canis lupus familiaris, UniProt A0A8I3MXG6); test: GCS inhibition in MDCK cell homogenates (Lysate IC50); type: biochemical, canine; conditions: MDCK cell homogenate
T1 construct: endogenous in cells; host or cells: MDCK cell homogenate
T1 sequence (A0A8I3MXG6 1-394): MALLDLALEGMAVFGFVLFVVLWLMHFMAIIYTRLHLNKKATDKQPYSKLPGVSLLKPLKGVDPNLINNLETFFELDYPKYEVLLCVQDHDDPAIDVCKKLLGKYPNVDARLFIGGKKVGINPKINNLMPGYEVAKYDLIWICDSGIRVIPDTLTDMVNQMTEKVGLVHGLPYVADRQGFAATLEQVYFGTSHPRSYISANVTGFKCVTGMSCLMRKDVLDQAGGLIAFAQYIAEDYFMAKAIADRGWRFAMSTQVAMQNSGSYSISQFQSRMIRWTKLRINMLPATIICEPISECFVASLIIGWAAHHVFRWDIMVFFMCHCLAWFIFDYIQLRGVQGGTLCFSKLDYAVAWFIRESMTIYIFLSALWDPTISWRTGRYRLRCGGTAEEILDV
Protocol: GCS Inhibition in MDCK Cell Homogenates (Lysate IC50, Table 1)
IC50 values for new compounds of the invention were determined as reported in Shayman J. A., Abe A. 2000. Glucosylceramide synthase: assay and properties. Methods Enzymol.311: 42-49.

GCS in MDCKII cells = molecular target: T2, GCS in MDCKII cells (Canis lupus familiaris, UniProt A0A8I3MXG6); test: GCS inhibition in MDCKII cells (glucosylceramide content after 24 h); type: cell-based, canine; conditions: 24 hours exposure, glucosylceramide level
T2 construct: whole cellular lipids of wild type MDCKII cells were extracted; endogenous in cells; host or cells: wild type MDCKII cells
T2 sequence (A0A8I3MXG6 1-394): T1 sequence (A0A8I3MXG6 1-394)
Protocol: GCS Inhibition in MDCKII Cells (MDCKII IC50, Table 1)
MDCKII cells were routinely maintained in medium consisting of Opti-MEM/F12 (1:1), 5% FBS, 100 U/mL of penicillin, 100 µg/mL streptomycin and 200 mM L-glutamine. MDCKII cells were newly thawed from frozen ampules every two months.
Stock solutions of water-insoluble glycosphingolipid inhibitors (100 mM) were prepared by dissolving each inhibitor into 100% ethanol as previously described (3). The inhibitor-ethanol solutions then were diluted 50X into 2 mM delipidated bovine serum albumin-phosphate buffered saline solution to make water-soluble glycosphingolipid inhibitor-bovine serum albumin complexes. The inhibitor-bovine serum album complexes were sterile-filtered and stored at -20° C. Prior to use, portions of the inhibitor-bovine serum albumin complexes were further diluted with Opti-F12 to make treatment solutions. Equal amounts of bovine serum albumin and ethanol were added into the control cultures. Cells (5 x 10^5) were seeded into 10-cm culture dishes containing 10 ml of Opti-F12 with 5% FBS. After 24 hours, the medium was replaced with fresh serum-free Opti-F12 medium, and cells were exposed to candidate GCS inhibitors at concentrations of 0, 1, 3, 10, 30, 100 and 300 nM for 24 hours.
Following inhibitor treatment, whole cellular lipids of wild type MDCKII cells were extracted as previously described in detail (10). Briefly, cells were washed with ice-cold phosphate buffered saline, fixed by methanol, and collected with rubber scraper. Chloroform was then added to yield a theoretical ratio of chloroform:methanol:water at 1:2:0.8 (v/v/v) to form a mono-phase. Cell debris and proteins were removed by centrifugation at 2200 x g for 30 min. The supernatants were portioned by adding chloroform and 0.9% NaCl. The lower organic phases containing neutral glycosphingolipids lipids were washed with methanol and 0.9% NaCl, and subjected to base- and acid-hydrolysis (10). A portion of purified glycosphingolipids normalized to 100 nmol of total phospholipids was analyzed by high performance thin layer chromatography. The thin layer chromatography separations were processed twice. The plate pretreated with 1% sodium borate was first developed in a solvent system consisting of chloroform/methanol (98/2, v/v). After air drying, the plate was then developed in a solvent system containing chloroform/methanol/water (70/30/4, v/v/v). The levels of glucosylceramide were detected by charring with 8% cupric sulfate in 8% phosphoric acid, and quantified by densitometric scanning using ImageJ, NIH Image. Image data was analyzed, and the IC50 of each inhibitor was calculated using GraphPad Prism (version 5.03).

Compound: COc1ccnc([C@@H](O)[C@@H](CN2CCCC2)NC(=O)CC2Cc3ccccc3C2)c1 [Example 12, 2-(2,3-dihydro-1H-inden-2-yl)-N-((1S,2R)-1-hydroxy-1-(4-methoxypyridin-2-yl)-3-(pyrrolidin-1-yl)propan-2-yl)acetamide]
pIC50 [1]: 4.60
pIC50 (GCS in MDCKII cells): 7.10

Compound: O=C(CC1Cc2ccccc2C1)N[C@H](CN1CCCC1)[C@H](O)c1cccnc1 [Example 13, 2-(2,3-dihydro-1H-inden-2-yl)-N-((1R,2R)-1-hydroxy-1-(pyridin-3-yl)-3-(pyrrolidin-1-yl)propan-2-yl)acetamide]
pIC50 [1]: 6.74
pIC50 (GCS in MDCKII cells): 6.23

Compound: COc1cc([C@@H](O)[C@@H](CN2CCCC2)NC(=O)CC2Cc3ccccc3C2)ccn1 [Example 8, 2-(2,3-dihydro-1H-inden-2-yl)-N-((1R,2R)-1-hydroxy-1-(2-methoxypyridin-4-yl)-3-(pyrrolidin-1-yl)propan-2-yl)acetamide]
pIC50 [1]: 7.25
pIC50 (GCS in MDCKII cells): 7.02

Compound: CC(C)(C)Oc1ccc([C@H](O)[C@H](CN2CCCC2)NC(=O)CC2Cc3ccccc3C2)nc1 [Example 18, N-((1R,2S)-1-(5-(tert-butoxy)pyridin-2-yl)-1-hydroxy-3-(pyrrolidin-1-yl)propan-2-yl)-2-(2,3-dihydro-1H-inden-2-yl)acetamide]
pIC50 [1]: < 5.70

Compound: O=C(CC1Cc2ccccc2C1)N[C@H](CN1CCCC1)[C@H](O)c1ccccn1 [Example 4, 2-(2,3-dihydro-1H-inden-2-yl)-N-((1S,2R)-1-hydroxy-1-(pyridin-2-yl)-3-(pyrrolidin-1-yl)propan-2-yl)acetamide]
pIC50 [1]: 6.82
pIC50 (GCS in MDCKII cells): 7.77

Compound: 2-(2,3-dihydro-1H-inden-2-yl)-N-((1R,2R)-1-hydroxy-1-(6-methoxypyridin-3-yl)-3-(pyrrolidin-1-yl)propan-2-yl)acetamide [Example 1]
pIC50 [1]: < 6.00
pIC50 (GCS in MDCKII cells): < 6.00

Compound: O=C(CC1Cc2ccccc2C1)N[C@H](CN1CCCC1)[C@H](O)c1ccnc(Cl)c1 [Example 27, N-((1R,2R)-1-(2-chloropyridin-4-yl)-1-hydroxy-3-(pyrrolidin-1-yl)propan-2-yl)-2-(2,3-dihydro-1H-inden-2-yl)acetamide]
pIC50 (GCS in MDCKII cells): 7.18

Compound: COc1ccc([C@@H](O)[C@@H](CN2CCCC2)N(C)C(=O)CC2Cc3ccccc3C2)nc1 [Example 10]
pIC50 [1]: 7.43
pIC50 (GCS in MDCKII cells): 7.80

Compound: COc1cccc([C@@H](O)[C@@H](CN2CCCC2)NC(=O)CC2Cc3ccccc3C2)n1 [Example 3, 2-(2,3-dihydro-1H-inden-2-yl)-N-((1S,2R)-1-hydroxy-1-(6-methoxypyridin-2-yl)-3-(pyrrolidin-1-yl)propan-2-yl)acetamide]
pIC50 [1]: 6.70
pIC50 (GCS in MDCKII cells): 7.52

Compound: O=C(CC1Cc2ccccc2C1)N[C@H](CN1CCCC1)[C@H](O)c1cc(Cl)ccn1 (stereo in doubt) [Example 23, (+/-)-N-(1-(4-chloropyridin-2-yl)-1-hydroxy-3-(pyrrolidin-1-yl)propan-2-yl)-2-(2,3-dihydro-1H-inden-2-yl)acetamide]
pIC50 [1]: 7.79

Compound: CC(C)(C)Oc1ccc([C@@H](O)[C@@H](CN2CCCC2)NC(=O)CC2Cc3ccc(F)cc3C2)nc1 (stereo partly drawn) [Example 24, N-((1S,2R)-1-(5-(tert-butoxy)pyridin-2-yl)-1-hydroxy-3-(pyrrolidin-1-yl)propan-2-yl)-2-(5-fluoro-2,3-dihydro-1H-inden-2-yl)acetamide]
pIC50 [1]: 6.25
pIC50 (GCS in MDCKII cells): 7.62

Compound: COc1cncc([C@@H](O)[C@@H](CN2CCCC2)NC(=O)CC2Cc3ccccc3C2)c1 [Example 9, 2-(2,3-dihydro-1H-inden-2-yl)-N-((1R,2R)-1-hydroxy-1-(5-methoxypyridin-3-yl)-3-(pyrrolidin-1-yl)propan-2-yl)acetamide]
pIC50 [1]: < 5.30
pIC50 (GCS in MDCKII cells): < 6.00

Compound: O=C(CC1Cc2ccccc2C1)N[C@H](CN1CCCC1)[C@H](O)c1cccc(Cl)n1 [Example 20, N-((1S,2R)-1-(6-chloropyridin-2-yl)-1-hydroxy-3-(pyrrolidin-1-yl)propan-2-yl)-2-(2,3-dihydro-1H-inden-2-yl)acetamide]
pIC50 [1]: 6.88
pIC50 (GCS in MDCKII cells): 7.21

Compound: COc1cccnc1[C@@H](O)[C@@H](CN1CCCC1)NC(=O)CC1Cc2ccccc2C1 [Example 14, 2-(2,3-dihydro-1H-inden-2-yl)-N-((1S,2R)-1-hydroxy-1-(3-methoxypyridin-2-yl)-3-(pyrrolidin-1-yl)propan-2-yl)acetamide]
pIC50 [1]: < 5.70
pIC50 (GCS in MDCKII cells): 6.35

Compound: O=C(CC1Cc2ccccc2C1)N[C@H](CN1CCCC1)[C@H](O)c1ccc(OCC(F)(F)F)cn1 [Example 6, 2-(2,3-dihydro-1H-inden-2-yl)-N-((1S,2R)-1-hydroxy-3-(pyrrolidin-1-yl)-1-(5-(2,2,2-trifluoroethoxy)pyridin-2-yl)propan-2-yl)acetamide]
pIC50 [1]: 7.66
pIC50 (GCS in MDCKII cells): 8.62

Compound: O=C(CC1Cc2ccccc2C1)N[C@@H](CN1CCCC1)[C@@H](O)c1cc(Cl)ccn1 (stereo in doubt) [Example 26]
pIC50 [1]: < 5.70

Second part, the compound after the results:

pIC50 [1]: 6.60
pIC50 (GCS in MDCKII cells): 8.19
Compound: O=C(CC1Cc2ccccc2C1)N[C@H](CN1CCCC1)[C@H](O)c1ccc(OC(F)(F)F)cn1 (racemic) [Example 5, 2-(2,3-dihydro-1H-inden-2-yl)-N-((1S,2R)-1-hydroxy-3-(pyrrolidin-1-yl)-1-(5-(trifluoromethoxy)pyridin-2-yl)propan-2-yl)acetamide]

pIC50 [1]: 7.61
pIC50 (GCS in MDCKII cells): 8.17
Compound: COc1ccc(C(O)[C@@H](CN2CCCC2)NC(=O)CC2Cc3ccccc3C2)nc1 (stereo in doubt) [Example 2, 2-(2,3-dihydro-1H-inden-2-yl)-N-((1R,2R)-1-hydroxy-1-(5-methoxypyridin-2-yl)-3-(pyrrolidin-1-yl)propan-2-yl)acetamide]

pIC50 [1]: 7.67
pIC50 (GCS in MDCKII cells): 8.03
Compound: COc1ccc([C@@H](O)[C@@H](CN2CC3CC3C2)NC(=O)CC2Cc3ccccc3C2)nc1 (stereo partly drawn) [Example 15, N-((1S,2R)-3-(3-azabicyclo[3.1.0]hexan-3-yl)-1-hydroxy-1-(5-methoxypyridin-2-yl)propan-2-yl)-2-(2,3-dihydro-1H-inden-2-yl)acetamide]

pIC50 [1]: < 6.00
Compound: O=C(CC1Cc2ccccc2C1)N[C@@H](CN1CCCC1)[C@@H](O)c1ccc(OC(F)(F)F)cn1 [Example 22, 2-(2,3-dihydro-1H-inden-2-yl)-N-((1R,2S)-1-hydroxy-3-(pyrrolidin-1-yl)-1-(5-(trifluoromethoxy)pyridin-2-yl)propan-2-yl)acetamide]

pIC50 [1]: < 5.70
pIC50 (GCS in MDCKII cells): < 6.00
Compound: COc1ccc([C@@H](O)[C@@H](CN2CCC(C)(C)C2)NC(=O)CC2Cc3ccccc3C2)nc1 [Example 16, 2-(2,3-dihydro-1H-inden-2-yl)-N-((1S,2R)-3-(3,3-dimethylpyrrolidin-1-yl)-1-hydroxy-1-(5-methoxypyridin-2-yl)propan-2-yl)acetamide]

pIC50 [1]: 7.09
pIC50 (GCS in MDCKII cells): 7.86
Compound: COc1ccc([C@@H](O)[C@@H](CN2CC[C@@H](F)C2)NC(=O)CC2Cc3ccccc3C2)nc1 [Example 19, 2-(2,3-dihydro-1H-inden-2-yl)-N-((1S,2R)-3-((R)-3-fluoropyrrolidin-1-yl)-1-hydroxy-1-(5-methoxypyridin-2-yl)propan-2-yl)acetamide]

pIC50 [1]: < 5.70
Compound: COc1ccc([C@H](O)[C@H](CN2CCCC2)NC(=O)CC2Cc3ccccc3C2)nc1 [Example 11, 2-(2,3-dihydro-1H-inden-2-yl)-N-((1R,2S)-1-hydroxy-1-(5-methoxypyridin-2-yl)-3-(pyrrolidin-1-yl)propan-2-yl)acetamide]
